Measured values from patent US20120115896A1, “ISOGENIC HUMAN CELL LINES COMPRISING MUTATED CANCER ALLELES AND PROCESS USING THE CELL LINES” (priority 2008, published 2012).
Where two headings read alike, the source gives them in different places.

Tests used:
[1] = test system: hTERT-HME1 DKI cells carrying PIK3CA (H1047R) and EGFR (delE746-A750)
[2] = test system: hTERT-HME1 cells carrying BRAF (V600E) KI
[3] = test system: hTERT-HME1 cells carrying EGFR (delE746-A750) KI
[4] = test system: hTERT-HME1 cells carrying PIK3CA (E545K and H1047R) KI
[5] = test system: hTERT-HME1 cells carrying KRAS (G13D) KI
[6] = test system: hTERT-HME1 cells carrying KRAS (G13D) KI; experiment: Drug assay: cell viability by ATP content (96 h), KI versus parental cells; ΔKI pharmarray analysis
[7] = test system: hTERT-HME1 cells carrying BRAF (V600E) KI; experiment: as above
[8] = test system: hTERT-HME1 cells carrying EGFR (delE746-A750) KI; experiment: Drug assay: cell viability by ATP content (CellTiter-Glo, 96 h), KI versus parental cells; ΔKI pharmarray analysis
[9] = test system: hTERT-HME1 cells carrying PIK3CA (E545K and H1047R) KI; experiment: Drug assay: cell viability by ATP content (96 h) and Hoechst/propidium iodide staining, KI versus parental cells; ΔKI pharmarray analysis
[10] = test system: hTERT-HME1 DKI cells carrying PIK3CA (H1047R) and EGFR (delE746-A750); experiment: Drug assay: cell viability by ATP content (96 h), DKI versus parental cells; ΔKI pharmarray analysis

## CCN(CC)CCNC(=O)c1cc(Cl)c(N)cc1OC [Metoclopramide]
[1]; Log(M) −3.10
  ΔKI PIK3CA + EGFR: 2.8
[1]; Log(M) −3.35
  ΔKI PIK3CA + EGFR: 0
[1]; Log(M) −3.57
  ΔKI PIK3CA + EGFR: 0
[1]; Log(M) −3.70
  ΔKI PIK3CA + EGFR: 0.2
[1]; Log(M) −3.82
  ΔKI PIK3CA + EGFR: 0
[1]; Log(M) −4.05
  ΔKI PIK3CA + EGFR: 0
[1]; Log(M) −4.30
  ΔKI PIK3CA + EGFR: 0
[1]; Log(M) −4.52
  ΔKI PIK3CA + EGFR: 0
[2]; Log(M) −3.10
  ΔKI BRAF: −4.48
[2]; Log(M) −3.35
  ΔKI BRAF: 0
[2]; Log(M) −3.57
  ΔKI BRAF: 0
[2]; Log(M) −3.70
  ΔKI BRAF: −0.66
[2]; Log(M) −3.82
  ΔKI BRAF: 0
[2]; Log(M) −4.05
  ΔKI BRAF: 0
[2]; Log(M) −4.30
  ΔKI BRAF: 0
[2]; Log(M) −4.52
  ΔKI BRAF: 0
[3]; Log(M) −3.10
  ΔKI EGFR: 0
[3]; Log(M) −3.35
  ΔKI EGFR: 9.94
[3]; Log(M) −3.57
  ΔKI EGFR: 0
[3]; Log(M) −3.70
  ΔKI EGFR: 0
[3]; Log(M) −3.82
  ΔKI EGFR: 0
[3]; Log(M) −4.05
  ΔKI EGFR: 0
[3]; Log(M) −4.30
  ΔKI EGFR: 0
[3]; Log(M) −4.52
  ΔKI EGFR: 0
[4]; Log(M) −3.10
  ΔKI PIK3CA: 0
[4]; Log(M) −3.35
  ΔKI PIK3CA: 0
[4]; Log(M) −3.57
  ΔKI PIK3CA: 0
[4]; Log(M) −3.70
  ΔKI PIK3CA: 0
[4]; Log(M) −3.82
  ΔKI PIK3CA: 0
[4]; Log(M) −4.05
  ΔKI PIK3CA: 0
[4]; Log(M) −4.30
  ΔKI PIK3CA: 0
[4]; Log(M) −4.52
  ΔKI PIK3CA: 0
[5]; Log(M) −3.10
  ΔKI KRAS: 0
[5]; Log(M) −3.35
  ΔKI KRAS: 0
[5]; Log(M) −3.57
  ΔKI KRAS: 0
[5]; Log(M) −3.70
  ΔKI KRAS: 0
[5]; Log(M) −3.82
  ΔKI KRAS: 0
[5]; Log(M) −4.05
  ΔKI KRAS: 0
[5]; Log(M) −4.30
  ΔKI KRAS: 0
[5]; Log(M) −4.52
  ΔKI KRAS: 0

## CC(C)=CCc1c(O)cc(O)c2c1O[C@H](c1ccc(O)cc1)CC2=O [8-Prenylnaringenin]
[1]; Log(M) −3.20
  ΔKI PIK3CA + EGFR: 0.02
[1]; Log(M) −3.68
  ΔKI PIK3CA + EGFR: 1.52
[2]; Log(M) −3.20
  ΔKI BRAF: 0.02
[2]; Log(M) −3.68
  ΔKI BRAF: 0.88
[3]; Log(M) −3.20
  ΔKI EGFR: 0
[3]; Log(M) −3.68
  ΔKI EGFR: 1.16
[4]; Log(M) −3.20
  ΔKI PIK3CA: 0.02
[4]; Log(M) −3.68
  ΔKI PIK3CA: 0
[5]; Log(M) −3.20
  ΔKI KRAS: 0.02
[5]; Log(M) −3.68
  ΔKI KRAS: 0

## Oc1cccc(-c2nc(N3CCOCC3)c3oc4ncccc4c3n2)c1 [PI-103]
[1]; Log(M) −6.00
  ΔKI PIK3CA + EGFR: 0
[1]; Log(M) −7.00
  ΔKI PIK3CA + EGFR: 0
[1]; Log(M) −8.00
  ΔKI PIK3CA + EGFR: 0
[2]; Log(M) −6.00
  ΔKI BRAF: 0
[2]; Log(M) −7.00
  ΔKI BRAF: 0
[2]; Log(M) −8.00
  ΔKI BRAF: 0
[3]; Log(M) −6.00
  ΔKI EGFR: 3.9
[3]; Log(M) −7.00
  ΔKI EGFR: 0
[3]; Log(M) −8.00
  ΔKI EGFR: 0
[4]; Log(M) −6.00
  ΔKI PIK3CA: 0
[4]; Log(M) −7.00
  ΔKI PIK3CA: 0
[4]; Log(M) −8.00
  ΔKI PIK3CA: 0
[5]; Log(M) −6.00
  ΔKI KRAS: 0
[5]; Log(M) −7.00
  ΔKI KRAS: 0
[5]; Log(M) −8.00
  ΔKI KRAS: 0

## CO[C@H]1C[C@@H]2CC[C@@H](C)[C@@](O)(O2)C(=O)C(=O)N2CCCC[C@H]2C(=O)O[C@H]([C@H](C)C[C@@H]2CC[C@@H](O)[C@H](OC)C2)CC(=O)[C@H](C)/C=C(\C)[C@@H](O)[C@@H](OC)C(=O)[C@H](C)C[C@H](C)/C=C/C=C/C=C/1C [rapamycin, Rapamycin]
[1]; Log(M) −5.40
  ΔKI PIK3CA + EGFR: 1.22
[1]; Log(M) −6.40
  ΔKI PIK3CA + EGFR: 0
[1]; Log(M) −7.40
  ΔKI PIK3CA + EGFR: 1.6
[1]; Log(M) −8.40
  ΔKI PIK3CA + EGFR: 0
[1]; Log(M) −9.40
  ΔKI PIK3CA + EGFR: 0.66
[1]; Log(M) −10.40
  ΔKI PIK3CA + EGFR: 0

## O=c1cc(N2CCOCC2)oc2c(-c3ccccc3)cccc12 [LY294002, LY 294002]
[4]; Log(M) −5.10
  ΔKI PIK3CA: 3.62

## CCCCCCCCCCCCCCCCCCOCC(COC(=O)OC1C(O)C(O)C(O)C(CO)C1O)OC [OGC-023, 1L6-Hydroxymethyl-chiro-inositol-2-(R)-2-O-methyl-3-O-octadecyl-sn-glycerocarbonate]
[6]; Log(M) −4.14
  ΔKI KRAS: 0
[6]; Log(M) −4.62
  ΔKI KRAS: 0
[6]; Log(M) −5.10
  ΔKI KRAS: 0
[7]; Log(M) −4.14
  ΔKI BRAF: 0
[7]; Log(M) −4.62
  ΔKI BRAF: 0
[7]; Log(M) −5.10
  ΔKI BRAF: 0
[8]; Log(M) −4.14
  ΔKI EGFR: 0
[8]; Log(M) −4.62
  ΔKI EGFR: 0
[8]; Log(M) −5.10
  ΔKI EGFR: 0
[9]; Log(M) −4.14
  ΔKI PIK3CA: 0
[9]; Log(M) −4.62
  ΔKI PIK3CA: 0
[9]; Log(M) −5.10
  ΔKI PIK3CA: 0
[10]; Log(M) −4.14
  ΔKI PIK3CA + EGFR: 0
[10]; Log(M) −4.62
  ΔKI PIK3CA + EGFR: 3.32
[10]; Log(M) −5.10
  ΔKI PIK3CA + EGFR: 2.4
